These results are taken from PubChem BioAssay (NCI).

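96-well plates; 48 h exposure; 5 concentrations. Endpoints by linear interpolation between flanking doses. Not reached: highest tested concentration assigned. Abbreviation: GI50, concentration required for 50% inhibition of growth. TGI marks complete inhibition of growth.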 Where a SMILES comes first, the peptide text is derived from it. The star is where a group is joined. Palmitoyl = CCCCCCCCCCCCCCCC(=O)*

Some test systems named below: M14 melanoma; EKVX NSCLC; OVCAR-4 ovarian; DU-145 prostate; OVCAR-5 ovarian; SNB-19 CNS; RPMI-8226 leukemia; NCI-H460 lung; U251 CNS; SF-268 CNS.
Experiment in all cases: DTP human tumour cell line panel, 48 h

In general, TGI refers to the concentration at which net growth stops. A low value points to more potent growth arrest. What is called GI50 is the concentration that inhibits growth by half.

With `Cc1cc(OP2(=O)NCc3ncccc3O2)ccc1Cl` (stereo not given), the TGI with M14 melanoma, with EKVX NSCLC, with OVCAR-4 ovarian, with DU-145 prostate, in the assay on OVCAR-5 ovarian and in the assay with SNB-19 CNS was > 100 µM in each case. Besides, the TGI in the assay with RPMI-8226 leukemia, with NCI-H460 lung and with U251 CNS was > 100 µM each time.
As for `CSc1nc2c(c(N(C)C)n1)C(O)n1c(nc3ccccc31)S2` (stereo not given), the TGI is > 100 µM in the assay with SF-268 CNS; > 100 µM in the assay with M14 melanoma; > 100 µM in the assay with EKVX NSCLC; 24.5 µM in the assay with OVCAR-4 ovarian; > 100 µM with DU-145 prostate; > 100 µM in the assay with OVCAR-5 ovarian. The TGI is > 77.9 µM with SNB-19 CNS, > 100 µM with RPMI-8226 leukemia, > 100 µM with NCI-H460 lung and > 55.5 µM in the assay on U251 CNS.
On to `Cc1ccnc(NC(=S)Nc2ccc([N+](=O)[O-])cc2)c1`, for which the TGI with SF-268 CNS, in the assay with M14 melanoma, in the assay with EKVX NSCLC, in the assay with OVCAR-4 ovarian, in the assay with DU-145 prostate and with SNB-19 CNS was > 100 µM throughout. Besides, the TGI in the assay with RPMI-8226 leukemia, with NCI-H460 lung and in the assay with U251 CNS was > 100 µM throughout.
For `CCCCCCCCCCCCCCCC(=O)N1CCCC1C(=O)NCC(=O)NC(Cc1ccccc1)C(=O)N1CCCC1C(=O)NC(CO)C(=O)NC(Cc1ccc(O)cc1)C(=O)NC(CCCCN)C(=O)NC(CC(C)C)C(=O)NC(CCCN=C(N)N)C(=O)N1CCCC1C(=O)NCC(N)=O` (stereo not given) (Palmitoyl-PGFPSYKLRPG-NH2; configuration not given here), the GI50 is 12.4 µM with SF-268 CNS; 14.2 µM in the assay on M14 melanoma; 15.7 µM in the assay with EKVX NSCLC; 30.1 µM with OVCAR-4 ovarian; 18.3 µM in the assay on DU-145 prostate; 17.1 µM in the assay with OVCAR-5 ovarian. Besides, the figures for the GI50 with SNB-19 CNS, with RPMI-8226 leukemia and in the assay on NCI-H460 lung were 25.7 µM, 11.6 µM and 19.4 µM, respectively. Also, the TGI in the assay with SF-268 CNS was 30.6 µM; in the assay on M14 melanoma, 27.3 µM; in the assay with EKVX NSCLC, 44.5 µM; in the assay with OVCAR-4 ovarian, 81.8 µM; with DU-145 prostate, 39.9 µM; in the assay with OVCAR-5 ovarian it was 37.8 µM. Moreover, the concentration for total growth inhibition (TGI) in the assay on SNB-19 CNS came out at 55.5 µM; in the assay on RPMI-8226 leukemia it was 29.3 µM; in the assay with NCI-H460 lung it was 41.2 µM.
As to `COc1cc2c(cc1OCCCCCN1CCN(c3ncnc4ccccc34)CC1)N=CC1CCCN1C2=O` (stereo not given), the GI50 was 0.0349 µM in the assay with SF-268 CNS; 0.032 µM in the assay with M14 melanoma; 0.114 µM with EKVX NSCLC; 0.0498 µM in the assay on OVCAR-4 ovarian; 0.0271 µM in the assay with DU-145 prostate; 0.0359 µM in the assay with OVCAR-5 ovarian. Moreover, the figures for the GI50 with SNB-19 CNS, in the assay with RPMI-8226 leukemia and in the assay on U251 CNS were 0.0333 µM, < 0.0138 µM and 0.0252 µM, respectively. Also, the TGI in the assay on SF-268 CNS came out at 2.07 µM; in the assay with M14 melanoma, 0.128 µM; in the assay with EKVX NSCLC, 0.724 µM; in the assay with OVCAR-4 ovarian, 2.28 µM; in the assay on DU-145 prostate it was 0.97 µM; in the assay on OVCAR-5 ovarian, 14.7 µM. Also, the TGI in the assay on SNB-19 CNS was 3.53 µM; with RPMI-8226 leukemia, 0.035 µM; in the assay on U251 CNS, 3.98 µM.
Turning to `O=C(CN1C(=O)CC(c2ccccc2)(c2ccccc2)C1=O)N1CCN(CCO)CC1`, the TGI with SF-268 CNS, in the assay on M14 melanoma, in the assay with EKVX NSCLC, in the assay on OVCAR-4 ovarian, with DU-145 prostate and in the assay with OVCAR-5 ovarian was > 100 µM in each case. Also, the TGI with SNB-19 CNS, in the assay with RPMI-8226 leukemia and in the assay with U251 CNS was > 100 µM throughout.
Take `C=C(C)[C@H]1C2=CC(C(=O)OC)=C(C[C@H](C(=C)C)[C@@H](O)[C@@H](O)C3=C[C@H]1OC3=O)O2`: the TGI in the assay on SF-268 CNS, in the assay on M14 melanoma, in the assay with EKVX NSCLC, in the assay on OVCAR-4 ovarian, in the assay on DU-145 prostate and in the assay on OVCAR-5 ovarian was > 100 µM throughout. Also, the TGI with SNB-19 CNS, in the assay on RPMI-8226 leukemia and in the assay on U251 CNS was > 100 µM in each case.
As for `O=C(CNc1ccc(Cl)cc1Cl)Nn1c(-c2ccccc2)nc2ccccc2c1=O`, the TGI worked out at 21.6 µM with SF-268 CNS; 30.8 µM in the assay on M14 melanoma; 35.5 µM with EKVX NSCLC; 32.2 µM in the assay on OVCAR-4 ovarian; 27.5 µM in the assay on DU-145 prostate; 37.5 µM in the assay on OVCAR-5 ovarian. Also, the TGI was 33.9 µM with SNB-19 CNS, 71.3 µM with RPMI-8226 leukemia and 30.5 µM with NCI-H460 lung.
Take `Cc1ccsc1/C=N/Nc1cnccn1`: the TGI in the assay with SF-268 CNS, in the assay with M14 melanoma, with EKVX NSCLC, with OVCAR-4 ovarian, with DU-145 prostate and with OVCAR-5 ovarian was > 100 µM in each case. The TGI in the assay on SNB-19 CNS, in the assay with RPMI-8226 leukemia and in the assay with U251 CNS was > 100 µM in each case.
